Experimental data published in patent publication US10711000B2 (Fronthera U.S. Pharmaceuticals LLC, priority 2018, dated 2020).
Read-outs that look alike come from different tables or passages of the source.

Target: T1, Autotaxin (Homo sapiens, UniProt Q13822)
T1 construct: from tissue; host or cells: pooled human plasma
Test: LPA formation in pooled human plasma (ex vivo autotaxin inhibition)
Type: biochemical
Details: 2 hours incubation
How it was run: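 Pooled human plasma incubated 2 h with various compound concentrations; LPA 18:2 and 20:4 quantified by LC/MS/MS (negative-ion MRM, LPA17:0 internal standard) after butanol extraction. Inhibition of LPA formation relative to untreated plasma; IC50 by non-linear regression.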

[1] = LPA 18:2 by LC/MS/MS, read-out: LPA formation (18:2) (IC50)
[2] = LPA 20:4 by LC/MS/MS, read-out: LPA formation (20:4) (IC50)

Compound | IC50 [1] | IC50 [2]
Cc1cc(N2CCC3(CN(C(=O)[C@H]4CCOC4)C3)C2)cc2c(N(C)c3nc(-c4ccc(F)cc4)c(C#N)s3)c(C3CC3)nn12 [Example 86, (S)-2-((2-cyclopropyl-7-methyl-5-(2-(tetrahydrofuran-3-carbonyl)-2,6-diazaspiro[3.4]octan-6-yl)pyrazolo[1,5-a]pyridin-3-yl)(methyl)amino)-4-(4-fluorophenyl)thiazole-5-carbonitrile] | ≤ 100 nM | ≤ 100 nM
CCc1nn2ccc(N3CC4(CN(C(=O)[C@@H]5CCOC5)C4)C3)cc2c1N(C)c1nc(-c2ccc(F)cc2)c(C#N)s1 [Example 9, (R)-2-((2-ethyl-5-(6-(tetrahydrofuran-3-carbonyl)-2,6-diazaspiro[3.3]heptan-2-yl)pyrazolo[1,5-a]pyridin-3-yl)(methyl)amino)-4-(4-fluorophenyl)thiazole-5-carbonitrile] | 100 to 500 nM | 100 to 500 nM
CCn1nc2ncc(N3CC4(CN(C(=O)C5(O)CCOCC5)C4)C3)cc2c1N(C)c1nc(-c2ccc(F)cc2)c(C#N)s1 [Compound 116, 2-((2-ethyl-5-(6-(4-hydroxytetrahydro-2H-pyran-4-carbonyl)-2,6-diazaspiro[3.3]heptan-2-yl)-2H-pyrazolo[3,4-b]pyridin-3-yl)(methyl)amino)-4-(4-fluorophenyl)thiazole-5-carbonitrile] | ≤ 100 nM | ≤ 100 nM
CCc1nn2c(C)cc(N3CCC4(CN(C(=O)N5CC(O)C5)C4)C3)cc2c1N(C)c1nc(-c2ccc(F)cc2)c(C#N)s1 [Example 36, 2-((2-ethyl-5-(2-(3-hydroxyazetidine-1-carbonyl)-2,6-diazaspiro[3.4]octan-6-yl)-7-methylpyrazolo[1,5-a]pyridin-3-yl)(methyl)amino)-4-(4-fluorophenyl)thiazole-5-carbonitrile] | ≤ 100 nM | ≤ 100 nM
CCc1nn2c(C)cc(N3CC4(CN(C(=O)OC5CCOC5)C4)C3)cc2c1N(C)c1nc(-c2ccc(F)cc2)c(C#N)s1 (stereo not shown) [Example 34, tetrahydrofuran-3-yl 6-(3-((5-cyano-4-(4-fluorophenyl)thiazol-2-yl)(methyl)amino)-2-ethyl-7-methylpyrazolo[1,5-a]pyridin-5-yl)-2,6-diazaspiro[3.3]heptane-2-carboxylate] | 100 to 500 nM | 100 to 500 nM
CCc1nn2c(C)cc(N3CC4(CN(C(=O)N5CCOCC5)C4)C3)cc2c1N(C)c1nc(-c2ccc(F)cc2)c(C#N)s1 [Example 42] | ≤ 100 nM | ≤ 100 nM
Cc1cc(N2CC3(CN(C(=O)[C@H]4CCOC4)C3)C2)cc2c(N(C)c3nc(-c4ccc(F)cc4)c(C#N)s3)c(C3CC3)nn12 [Example 78, (S)-2-((2-cyclopropyl-7-methyl-5-(6-(tetrahydrofuran-3-carbonyl)-2,6-diazaspiro[3.3]heptan-2-yl)pyrazolo[1,5-a]pyridin-3-yl)(methyl)amino)-4-(4-fluorophenyl)thiazole-5-carbonitrile] | ≤ 100 nM | ≤ 100 nM
CCc1nn2c(C)cc(N3CC4(CN(C(=O)[C@@H](O)CO)C4)C3)cc2c1N(C)c1nc(-c2ccc(F)cc2)c(C#N)s1 (single isomer, unassigned) [Example 76] | ≤ 100 nM | 100 to 500 nM
CCc1nn2ccc(N3CCN(CC(=O)N4CC[C@H](O)C4)CC3)cc2c1N(C)c1nc(-c2ccc(F)cc2)c(C#N)s1 [Example 2, (S)-2-((2-ethyl-5-(4-(2-(3-hydroxypyrrolidin-1-yl)-2-oxoethyl)piperazin-1-yl)pyrazolo[1,5-a]pyridin-3-yl)(methyl)amino)-4-(4-fluorophenyl)thiazole-5-carbonitrile] | ≤ 100 nM | ≤ 100 nM
Cc1cc(N2CCN(C[C@@H](O)CO)CC2)cc2c(N(C)c3nc(-c4ccc(F)cc4)c(C#N)s3)c(C3CC3)nn12 [Example 82, (R)-2-((2-cyclopropyl-5-(4-(2,3-dihydroxypropyl)piperazin-1-yl)-7-methylpyrazolo[1,5-a]pyridin-3-yl)(methyl)amino)-4-(4-fluorophenyl)thiazole-5-carbonitrile] | 100 to 500 nM | 100 to 500 nM
CCc1nn2cc(C)c(N3CC4(CN(C(=O)C(C)(C)O)C4)C3)cc2c1N(C)c1nc(-c2ccc(F)cc2)c(C#N)s1 [Example 98, 2-((2-ethyl-5-(6-(2-hydroxy-2-methylpropanoyl)-2,6-diazaspiro[3.3]heptan-2-yl)-6-methylpyrazolo[1,5-a]pyridin-3-yl)(methyl)amino)-4-(4-fluorophenyl)thiazole-5-carbonitrile] | 100 to 500 nM | 100 to 500 nM
CCc1nn2c(C)cc(N3CC4(CN(C(=O)c5ccco5)C4)C3)cc2c1N(C)c1nc(-c2ccc(F)cc2)c(C#N)s1 [Example 66, 2-((2-ethyl-5-(6-(furan-2-carbonyl)-2,6-diazaspiro[3.3]heptan-2-yl)-7-methylpyrazolo[1,5-a]pyridin-3-yl)(methyl)amino)-4-(4-fluorophenyl)thiazole-5-carbonitrile] | ≤ 100 nM | ≤ 100 nM
Cc1cc(N2CCN(C[C@H](O)CO)CC2)cc2c(N(C)c3nc(-c4ccc(F)cc4)c(C#N)s3)c(C3CC3)nn12 [Example 83, (S)-2-((2-cyclopropyl-5-(4-(2,3-dihydroxypropyl)piperazin-1-yl)-7-methylpyrazolo[1,5-a]pyridin-3-yl)(methyl)amino)-4-(4-fluorophenyl)thiazole-5-carbonitrile] | 500 to 1000 nM | 500 to 1000 nM
Cc1cc(N2CC3(CN(C(=O)C4(O)CCOCC4)C3)C2)cc2c(N(C)c3nc(-c4ccc(F)cc4)c(C#N)s3)c(C3CC3)nn12 [Example 90, 2-((2-cyclopropyl-5-(6-(4-hydroxytetrahydro-2H-pyran-4-carbonyl)-2,6-diazaspiro[3.3]heptan-2-yl)-7-methylpyrazolo[1,5-a]pyridin-3-yl)(methyl)amino)-4-(4-fluorophenyl)thiazole-5-carbonitrile] | ≤ 100 nM | ≤ 100 nM
CCc1nn2c(C)cc(N3CCC4(CN(C(=O)CO)C4)C3)cc2c1N(C)c1nc(-c2ccc(F)cc2)c(C#N)s1 [Example 52, 2-((2-ethyl-5-(2-(2-hydroxyacetyl)-2,6-diazaspiro[3.4]octan-6-yl)-7-methylpyrazolo[1,5-a]pyridin-3-yl)(methyl)amino)-4-(4-fluorophenyl)thiazole-5-carbonitrile] | 100 to 500 nM | 100 to 500 nM
CCc1nn2c(C)cc(N3CC4(CN(C(=O)c5ccon5)C4)C3)cc2c1N(C)c1nc(-c2ccc(F)cc2)c(C#N)s1 [Example 70, 2-((2-ethyl-5-(6-(isoxazole-3-carbonyl)-2,6-diazaspiro[3.3]heptan-2-yl)-7-methylpyrazolo[1,5-a]pyridin-3-yl)(methyl)amino)-4-(4-fluorophenyl)thiazole-5-carbonitrile] | 100 to 500 nM | 100 to 500 nM
CCc1nn2c(C)cc(N3CC4(CCN(C(=O)[C@H]5CCCO5)C4)C3)cc2c1N(C)c1nc(-c2ccc(F)cc2)c(C#N)s1 [Example 46, (R)-2-((2-ethyl-7-methyl-5-(6-(tetrahydrofuran-2-carbonyl)-2,6-diazaspiro[3.4]octan-2-yl)pyrazolo[1,5-a]pyridin-3-yl)(methyl)amino)-4-(4-fluorophenyl)thiazole-5-carbonitrile] | 100 to 500 nM | 100 to 500 nM
CCc1nn2ccc(N3CC4(CCN(C(=O)N5CC(O)C5)C4)C3)cc2c1N(C)c1nc(-c2ccc(F)cc2)c(C#N)s1 [Example 15, 2-((2-ethyl-5-(6-(3-hydroxyazetidine-1-carbonyl)-2,6-diazaspiro[3.4]octan-2-yl)pyrazolo[1,5-a]pyridin-3-yl)(methyl)amino)-4-(4-fluorophenyl)thiazole-5-carbonitrile] | ≤ 100 nM | ≤ 100 nM
CCc1nn2c(C)cc(N3CC4(CN(C(=O)C5COC5)C4)C3)cc2c1N(C)c1nc(-c2ccc(F)cc2)c(C#N)s1 [Example 31, 2-((2-ethyl-7-methyl-5-(6-(oxetane-3-carbonyl)-2,6-diazaspiro[3.3]heptan-2-yl)pyrazolo[1,5-a]pyridin-3-yl)(methyl)amino)-4-(4-fluorophenyl)thiazole-5-carbonitrile] | 100 to 500 nM | 100 to 500 nM
CCc1nn2c(C)cc(N3CCC4(CN(C(=O)C5(O)CC5)C4)C3)cc2c1N(C)c1nc(-c2ccc(F)cc2)c(C#N)s1 [Example 54, 2-((2-ethyl-5-(2-(1-hydroxycyclopropane-1-carbonyl)-2,6-diazaspiro[3.4]octan-6-yl)-7-methylpyrazolo[1,5-a]pyridin-3-yl)(methyl)amino)-4-(4-fluorophenyl)thiazole-5-carbonitrile] | 500 to 1000 nM | 500 to 1000 nM
CCc1nn2c(C)cc(N3CC4(C3)CN(c3ncco3)C4)cc2c1N(C)c1nc(-c2ccc(F)cc2)c(C#N)s1 [Example 35, 2-((2-ethyl-7-methyl-5-(6-(oxazol-2-yl)-2,6-diazaspiro[3.3]heptan-2-yl)pyrazolo[1,5-a]pyridin-3-yl)(methyl)amino)-4-(4-fluorophenyl)thiazole-5-carbonitrile] | 100 to 500 nM | 100 to 500 nM
CCc1nn2c(C)cc(N3CC4(CCN(C(=O)C(C)(C)O)C4)C3)cc2c1N(C)c1nc(-c2ccc(F)cc2)c(C#N)s1 [Example 53, 2-((2-ethyl-5-(6-(2-hydroxy-2-methylpropanoyl)-2,6-diazaspiro[3.4]octan-2-yl)-7-methylpyrazolo[1,5-a]pyridin-3-yl)(methyl)amino)-4-(4-fluorophenyl)thiazole-5-carbonitril] | ≤ 100 nM | ≤ 100 nM
CCc1nn2cc(C)c(N3CC4(CN(C(=O)C(O)CO)C4)C3)cc2c1N(C)c1nc(-c2ccc(F)cc2)c(C#N)s1 (stereo not shown) [Example 99, 2-((5-(6-(2,3-dihydroxypropanoyl)-2,6-diazaspiro[3.3]heptan-2-yl)-2-ethyl-6-methylpyrazolo[1,5-a]pyridin-3-yl)(methyl)amino)-4-(4-fluorophenyl)thiazole-5-carbonitrile] | ≤ 100 nM | ≤ 100 nM
